Here are results for 35 compounds from paper PMC3479139, “Diverse Small Molecule Inhibitors of Human Apurinic/Apyrimidinic Endonuclease APE1 Identified from a Screen of a Large Public Collection” (PLoS ONE, 2012).

For assay [1], the target named is double-stranded 17-mer DNA fragment. As to the kind of experiment: ThO (Thiazole Orange) DNA displacement assay.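 Note: miniaturized displacement of the intercalating dye from unlabeled duplex DNA, used to flag nonspecific DNA binders, chiefly intercalators, groove binders may be missed.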 The conditions noted are these: read-out: ThO-DNA binding IC50. It is filed as binding.
Source text: The double-stranded 17-mer DNA fragment used in the ThO DNA binding assay was of the same sequence as the fluorogenic HTS substrate but carried no dye labels.
(§1) In order to screen out nonselective compounds, such as non-specific DNA binders and inhibitors of related enzymes, we used a miniaturized ThO DNA displacement assay and a counterscreen against the bacterial endonuclease E. coli Endo IV, respectively, following the previously published protocols [21].
To detect screening hits that inhibit APE1 activity through non-specific DNA interactions, we employed a previously established miniaturized ThO dye displacement assay [21]. […] We note that the ThO assay reports primarily on DNA binders acting through intercalation, while potentially missing other types of DNA binders, such as those acting through the minor groove.
The target in assay [2] is T1, E. coli Endo IV (Escherichia coli, UniProt P0A6C1).
T1 construct: made in house
As to the kind of experiment: E. coli Endo IV profiling counterscreen.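 Note: selectivity counterscreen of candidate APE1 inhibitors against the bacterial endonuclease Endo IV, run in the same assay format as the primary APE1 high-throughput screen.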 It is filed as biochemical. The settings on record: read-out: EndoIV IC50. (In general: The purpose of a counterscreen is to sort out artefacts and off-target activity.)
Source text: as §1
To probe the selectivity of the candidate APE1 inhibitors, we tested them against E. coli EndoIV [36], employing the same assay as used in the HTS.

The target of assay [3] is T2, APE1 (Homo sapiens, UniProt P27695).
T2 construct: made in house
As to the kind of experiment: Gel-based radiotracer (32P) APE1 incision assay.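 Note: APE1 incision reactions ran 5 min at 37 °C, with cleaved product and intact substrate resolved electrophoretically.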 The conditions noted are these: percent incision shown; entries 1-112. The class given is biochemical. The arrangement: concentration or dose not given beside the values.

Assay [4] has as its target T2, APE1. The assay is described as follows: Fluorogenic kinetic qHTS APE1 incision assay (primary screen and retest of cherrypicked samples).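 Note: purified APE1 cleaving a fluorophore/dark-quencher labelled 17-mer duplex DNA bearing a tetrahydrofuran AP site, fluorescence rise followed kinetically over the first 2 min, inhibition normalized to controls.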 It is filed as biochemical. A general note: Quantitative high-throughput screening tests each substance at several concentrations.
The target of assay [5] is T2, APE1. As to the kind of experiment: Fluorescence polarization (FP) displacement assay of APE1 binding to AP-DNA probe.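 Note: TAMRA 5′-labeled duplex DNA with THF abasic site (5 nM) and APE1 (20 nM), Mg2+-free buffer, 15 min at room temperature, inhibition seen as lowered polarization.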 The conditions noted are these: read-out: FP IC50.
[6] abbreviates: retest of cherrypicked sample, read-out: APE1 Retest IC50.
[7] abbreviates: initial quantitative high-throughput screen, read-out: APE1 qHTS IC50.

T2 sequence (P27695 whole entry): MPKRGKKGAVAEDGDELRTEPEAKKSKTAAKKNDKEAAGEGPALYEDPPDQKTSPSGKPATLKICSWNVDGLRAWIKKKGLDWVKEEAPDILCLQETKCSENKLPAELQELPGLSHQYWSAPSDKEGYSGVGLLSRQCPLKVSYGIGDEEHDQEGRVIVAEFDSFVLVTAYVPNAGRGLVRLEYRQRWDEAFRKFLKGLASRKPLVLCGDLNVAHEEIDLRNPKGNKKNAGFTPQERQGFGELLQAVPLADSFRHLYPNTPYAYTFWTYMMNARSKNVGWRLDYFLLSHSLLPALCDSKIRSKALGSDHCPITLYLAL

With `CC1(C)C(=O)CC[C@]2(C)C3C(=O)C=C4[C@H]5C[C@@](C)(C(=O)O)CC[C@]5(C)CC[C@]4(C)[C@]3(C)CC[C@@H]12` (stereo partly shown) [MLS000697684], the IC50 in assay [1] and in assay [2] was above 57 µM in each case.
For `O=c1nc(N/N=C/c2ccco2)cn[nH]1` [MLS000685729], the IC50 is above 57 µM in assay [1], 5 µM in assay [4] (setting [6]), above 57 µM in assay [5] and above 57 µM in assay [2]. In addition, the “Radiotracer Assay (%Activity)” value in assay [3] is listed as 28%.
In the case of `Cc1cc(/C=C2\C(=O)NC(=O)N(Cc3ccco3)C2=O)c(C)n1-c1ccc(C(=O)O)cc1` [MLS000807042], the IC50 in assay [1] is above 57 µM; in assay [4] (setting [7]), 1.1 µM; in assay [4] (setting [6]), 14.1 µM; in assay [5], above 57 µM; in assay [2], above 57 µM. In addition, the “Radiotracer Assay (%Activity)” value in assay [3] was 33%.
Turning to `O=C(O)c1cc[c]([Sb](=[O])([OH])[OH])cc1[N+](=O)[O-]` [NSC-13755, reference compound], in assay [4] (control on every assay plate, average over screen, read-out: IC50 of intra-plate control titration), the IC50 amounted to 0.035 µM.
With `NS(=O)(=O)c1ccc(CCNC(=O)c2ccc3nccnc3c2)cc1` [MLS002252586], the IC50 in assay [1] and in assay [2] was above 57 µM in each case.
`CCOC(=O)c1cc(-c2ccc(N3CCOCC3)cc2)nn1-c1ccccc1C(=O)O` [MLS000759946]: the IC50 in assay [1] was above 57 µM; in assay [4] (setting [7]), 2.5 µM; in assay [4] (setting [6]), 14.1 µM; in assay [5], 15.8 µM; in assay [2], above 57 µM. Also, the “Radiotracer Assay (%Activity)” value in assay [3] amounted to 27%.
As for `COc1ccc(S(=O)(=O)N2CCN(C(=O)C3COc4ccccc4O3)CC2)cc1` (stereo not shown) [MLS002159357], the IC50 in assay [1] and in assay [2] was above 57 µM each time.
Consider `O=C(O)c1ccc(-n2cccc2/C=C2/NC(=O)N(c3ccccc3)C2=O)cc1` [MLS000778414], for which the IC50 is above 57 µM in assay [1]; 2.5 µM in assay [4] (setting [7]); 4 µM in assay [4] (setting [6]); 12.6 µM in assay [5]; above 57 µM in assay [2]. Besides, in assay [3], the “Radiotracer Assay (%Activity)” value came out at 37%.
In the case of `O=C(/C=C/c1ccc(O)c(O)c1)O[C@H](Cc1ccc(O)c(O)c1)C(=O)O` [MLS000697677], the IC50 is above 57 µM in assay [1]; 0.1 µM in assay [4] (setting [7]); 0.6 µM in assay [4] (setting [6]); above 57 µM in assay [5]; above 57 µM in assay [2]. In assay [3], the “Radiotracer Assay (%Activity)” value was determined as 38%.
As to `CCOC(=O)C1CCN(/C=C2/C(=O)NC(=O)N(Cc3ccco3)C2=O)CC1` [MLS000113273], the IC50 in assay [1] was above 57 µM; in assay [4] (setting [7]), 14.1 µM; in assay [4] (setting [6]), 3.2 µM; in assay [5], above 57 µM; in assay [2], above 57 µM. Moreover, the “Radiotracer Assay (%Activity)” value in assay [3] is on record as 3%.
For `CCN(CC)C(=O)CC(c1cc(OC)c(OC)c(OC)c1)c1c(OC)cc(OC)c2c(-c3ccccc3)cc(=O)oc12` (stereo not shown) [MLS000879482], the IC50 is above 57 µM in assay [1]; 22.4 µM in assay [4] (setting [7]); 5 µM in assay [4] (setting [6]); 12.6 µM in assay [5]; above 57 µM in assay [2]. Moreover, the “Radiotracer Assay (%Activity)” value in assay [3] is 37%.
`O=C(O)c1ccc(-n2cccc2/C=C2/NC(=O)N(c3cccc(Cl)c3)C2=O)cc1` [MLS000621695]: the IC50 in assay [1] is 15.8 µM; in assay [4] (setting [7]), 2.8 µM; in assay [4] (setting [6]), 1.6 µM; in assay [5], 11.2 µM; in assay [2], above 57 µM. Further, the “Radiotracer Assay (%Activity)” value in assay [3] came to 6%.
On to `Cc1c(NS(=O)(=O)c2cc(C(=O)NCCN(C)C)ccc2Cl)c(=O)n(-c2ccccc2)n1C` [MLS001175210], for which the IC50 in assay [1] and in assay [2] was above 57 µM in each case.
As to `O=C(COc1ccccc1[N+](=O)[O-])Nc1cccc(S(=O)(=O)NC2=NCCCCC2)c1` [MLS001078387], the IC50 in assay [1] and in assay [2] was above 57 µM throughout.
For the compound `O=C(CCC(=O)c1ccc(Oc2ccccc2)cc1)Nc1ccc(C(=O)O)cc1` [MLS001001328], the IC50 in assay [1] and in assay [2] was above 57 µM in each case.
For the compound `COc1ccc(CNC(=O)COC(=O)c2ccc(S(=O)(=O)NCc3ccco3)cc2)cc1` [MLS002252767], the IC50 in assay [1] and in assay [2] was above 57 µM throughout.
For `O=C(COC(=O)/C=C/c1ccco1)NCc1ccc2c(c1)OCO2` [MLS001006993], the IC50 in assay [1] and in assay [2] was above 57 µM throughout.
Take `CN(CC(=O)Nc1cccc(F)c1)C(=O)c1cc(-c2ccco2)nc2ccccc12` [MLS001156482]: the results for the IC50 in assay [1] and in assay [2] were 40.8 µM and above 57 µM, respectively.
In the same order, the values of `C=CCn1c(SCC(=O)Nc2sc3c(c2C#N)CCC(C)C3)nc2cc(C(=O)O)ccc2c1=O` (stereo not shown) [MLS002251505] are above 57 µM and above 57 µM.
As to `COC(=O)c1c(C)[nH]c(C(=O)COc2ccc3ccc(=O)oc3c2)c1C` [MLS002156353], the IC50 in assay [2] was above 57 µM.
Consider `Cc1ccc(C)c(OCCn2ccnc2)c1` [MLS000974607], for which the IC50 in assay [1] and in assay [2] was above 57 µM each time.
Regarding `O=C(O)Cc1ccc(S(=O)(=O)N2CCCC2)s1` [MLS002245326], the IC50 in assay [1] and in assay [2] was above 57 µM in each case.
On to `Cn1c(SCC(=O)Nc2nncs2)nnc1C1CC1` [MLS001060429], for which the IC50 in assay [1] and in assay [2] was above 57 µM in each case.
On to `O=C(COC(=O)/C=C/c1ccco1)NCc1ccco1` [MLS001004396], for which the IC50 in assay [1] and in assay [2] was above 57 µM throughout.
On to `O=[N+]([O-])c1ccc(Cl)c(-c2ccc(/C=N/n3cnnc3)o2)c1` [MLS001194618], for which the IC50 in assay [1] and in assay [2] was above 57 µM throughout.
With `CNS(=O)(=O)c1cccc(C(=O)OCC(=O)c2ccc[nH]2)c1` [MLS002163823], the IC50 in assay [1] and in assay [2] was above 57 µM in each case.
Regarding `Cc1ccc2c(=O)cc(C(=O)NCCc3ccc(S(N)(=O)=O)cc3)oc2c1` [MLS001216111], the IC50 is 36.3 µM in assay [1] and above 57 µM in assay [2].
As to `COc1ccccc1NC(=O)COC(=O)c1cc2c(s1)CCC2` [MLS002161511], the IC50 in assay [1] is above 57 µM; in assay [2], 18.2 µM.
For `O=C(Cc1ccc(S(=O)(=O)N2CCOCC2)s1)Nc1nc2c(s1)CCCC2` [MLS000567201] the same measures were 15.8 µM and above 57 µM.
For the compound `COc1cc(/C=C(\C#N)C(=O)Nc2cccc(C(=O)O)c2)ccc1OCc1ccc(Cl)cc1` [MLS001172702], the IC50 in assay [1] and in assay [2] was above 57 µM throughout.
As for `O=C(COC(=O)C1CC(=O)N(Cc2ccco2)C1)c1ccc(OC(=O)c2ccccc2)cc1` (stereo not shown) [MLS000548444], the IC50 in assay [1] is above 57 µM; in assay [2], 10 µM. For the same compound, the “Radiotracer Assay (%Activity)” value in assay [3] worked out at 35%.
Take `O=C(O)C1C2C=CC(C2)C1C(=O)Nc1ccccc1Br` (stereo not shown) [MLS001008562]: the IC50 in assay [1] and in assay [2] was above 57 µM throughout.
As to `O=C(/C=C/c1ccco1)OCC(=O)N1CCCCC1` [MLS002246602], the IC50 in assay [1] and in assay [2] was above 57 µM throughout.
Take `CC(C)OCCOc1ccc2oc(-c3ccco3)cc(=O)c2c1` [MLS001163009]: the IC50 in assay [1] and in assay [2] was above 57 µM throughout.
As to `N[C@H](Cc1ccc(O)c(O)c1)C(=O)O` [NCGC00093869], the IC50 in assay [1] was above 57 µM; in assay [4] (setting [7]) it was 1 µM; in assay [4] (setting [6]), 3.5 µM; in assay [2] it was above 57 µM. Moreover, the “Radiotracer Assay (%Activity)” value in assay [3] is 11.3%.
